tested on: rat mixed glial culture; assay: Activity of promoting neuronal neogenesis in rat mixed glial culture; type: cell-based; conditions: Rattus norvegicus, 72 h, compound 1 μM + rhIGF-1 100 ng/ml, 3 days culture; absorbance at 450 nm (class III beta-tubulin antibody); control rhIGF-1 only = 100%; read-out: Increase Ratio of the Absorbance (% control)
Protocol: From a three-day old SD rat, hippocampus and cerebral cortex were removed. By using a kit of dispersion liquid for neuronal cells (MB-X9901, manufactured by SUMITOMO BAKELITE CO., LTD.), cell suspension was prepared and then seeded on a 96-well plate coated with collagen Type I (4860-010, manufactured by Asahi Techno Glass Co., Ltd.) to 10^5 cells/well. Under the condition of 37° C. and 5% CO2, the cells were cultured for four days in a growth medium (D-MEM/F12 with 10% FBS, comprising PS).
After culturing, the medium was exchanged with a medium for differentiation (D-MEM/F12, comprising PS), added with rhIGF-1 (R&D Systems, 291-G1-250, final concentration of 100 ng/ml) and the compound to 1 μM, followed by further culture for three days. Cultured cells were fixed with 4% paraformaldehyde-PBS (manufactured by MUTO PURE CHEMICALS CO., LTD.) and subjected to membrane penetration using 0.1% Triton X-100 PBS, followed by blocking with Block Ace solution (UK-B80, manufactured by Dainippon Sumitomo Pharma Co., Ltd.). As a primary antibody, Anti-neuron-specific class III beta-tubulin antibody (R&D Systems, MAB1195, clone Tuj-1) was used after 1000× dilution. As a secondary antibody, Anti-Mouse Ig, HRP-Linked F (ab′) 2 Fragment Sheep (Amersham Biosciences, NA9310) was used after 10000× dilution. For washing process, the plate washer (BIO-TEK INSTRUMENTS ELX405) was used. For a chromogenic reaction, the reaction was carried out for 10 minutes using TMB Microwell Peroxidase Substrate System (Kirkegaard & Perry Laboratories, 50-76-00), followed by terminating the reaction according to the addition of 1M phosphoric acid. By using the plate reader (Labsystems Multiskan BICHROMATIC), absorbance at 450 nm was measured.
The absorbance for the case in which no compound is added (i.e., control, rhIGF-1 only) was 100%, and the increase ratio of the absorbance for the compound addition (i.e., compound+rhIGF-1) compared to the control was obtained as % control. Activity of the each compound for promoting neuronal differentiation that is measured according to the above method is summarized in Table 9 and Table 10.

| SMILES | activity at 1 µM |
| --- | --- |
| COc1ccc(N2CCN(c3cc4c(cc3-c3ccc(C)cc3)OC(C)(C)C4)CC2)cc1 [Example 2, 1-[2,2-Dimethyl-6-(4-methylphenyl)-2,3-dihydro-1-benzofuran-5-yl]-4-(4-methoxyphenyl)piperazine] | 432% |
| COc1ccc(N2CCN(c3c(C)c(C)c4c(c3-c3ccc(N(C)C)cc3)CC(C)(C)O4)CC2)cc1 [Example 5, 4-{5-[4-(4-Methoxyphenyl)piperazin-1-yl]-2,2,6,7-tetramethyl-2,3-dihydro-1-benzofuran-4-yl}-N,N-dimethylaniline] | 488% |
| COc1ccc(N2CCN(c3c(C)c(C)c4c(c3-c3ccoc3)CC(C)(C)O4)CC2)cc1 [Example 6, 1-(4-Furan-3-yl-2,2,6,7-tetramethyl-2,3-dihydro-1-benzofuran-5-yl)-4-(4-methoxyphenyl)piperazine] | > 500% |
| COc1ccc(N2CCN(c3c(C)c(C)c4c(c3C3CC3)CC(C)(C)O4)CC2)cc1 [Example 7, 1-(4-Cyclopropyl-2,2,6,7-tetramethyl-2,3-dihydro-1-benzofuran-5-yl)-4-(4-methoxyphenyl)piperazine] | 325% |
| C=Cc1c2c(c(C)c(C)c1N1CCN(c3ccc(OC)cc3)CC1)OC(C)(C)C2 [Example 8, 1-(4-Ethenyl-2,2,6,7-tetramethyl-2,3-dihydro-1-benzofuran-5-yl)-4-(4-methoxyphenyl)piperazine] | 242% |
| CCc1c2c(c(C)c(C)c1N1CCN(c3ccc(OC)cc3)CC1)OC(C)(C)C2 [Example 9, 1-(4-Ethyl-2,2,6,7-tetramethyl-2,3-dihydro-1-benzofuran-5-yl)-4-(4-methoxyphenyl)piperazine] | 228% |
| COc1ccc(N2CCN(c3c(C)c(C)c4c(c3C(C)C)CC(C)(C)O4)CC2)cc1 [Example 11, 1-(4-Methoxyphenyl)-4-[2,2,6,7-tetramethyl-4-(1-methylethyl)-2,3-dihydro-1-benzofuran-5-yl]piperazine] | 159% |
| Cc1ccc(N2CCN(c3c(C)c(C)c4c(c3C)CC(C)(C)O4)CC2)cc1 [Example 12, 1-(4-Methylphenyl)-4-(2,2,4,6,7-pentamethyl-2,3-dihydro-1-benzofuran-5-yl)piperazine] | 336% |
| COc1ccc(C2CN(c3c(C)c(C)c4c(c3C)CC(C)(C)O4)CCN2C)cc1 (stereo not shown) [Example 13, 2-(4-Methoxyphenyl)-1-methyl-4-(2,2,4,6,7-pentamethyl-2,3-dihydro-1-benzofuran-5-yl)piperazine] | 265% |
| COc1ccc(C2CN(c3c(C)c(C)c4c(c3C)CC(C)(C)O4)CCO2)cc1 (stereo not shown) [Example 15, 2-(4-Methoxyphenyl)-4-(2,2,4,6,7-pentamethyl-2,3-dihydro-1-benzofuran-5-yl)morpholine] | 332% |
| Cc1c(C)c(N2CCOC(Cc3ccccc3)C2)c(C)c2c1OC(C)(C)C2 (stereo not shown) [Example 16, 2-Benzyl-4-(2,2,4,6,7-pentamethyl-2,3-dihydro-1-benzofuran-5-yl)morpholine] | 344% |
| COc1ccc(N2CCN(c3c(C)c(C)c4c(c3C)CC3(CCCC3)O4)CC2)cc1 [Example 19, 1-(4-Methoxyphenyl)-4-(4,6,7-trimethyl-3H-spiro[1-benzofuran-2,1′-cyclopentan]-5-yl)piperazine] | 278% |
| COc1ccc(N2CCN(c3c(C)c(C)c4c(c3C)CC(C)(C)O4)CC2)cc1F [Example 32, 1-(3-Fluoro-4-methoxyphenyl)-4-(2,2,4,6,7-pentamethyl-2,3-dihydro-1-benzofuran-5-yl)piperazine] | > 500% |
| Cc1cc(N2CCN(c3c(C)c(C)c4c(c3C)CC(C)(C)O4)CC2)ccc1F [Example 35, 1-(4-Fluoro-3-methylphenyl)-4-(2,2,4,6,7-pentamethyl-2,3-dihydro-1-benzofuran-5-yl)piperazine] | 182% |
| COc1ccc(N2CCN(c3c(C)c(C)c4c(c3C)CC(C)(C)O4)CC2)cc1OC [Example 37, 1-(3,4-Dimethoxyphenyl)-4-(2,2,4,6,7-pentamethyl-2,3-dihydro-1-benzofuran-5-yl)piperazine] | > 500% |
| COc1cc(N2CCN(c3c(C)c(C)c4c(c3C)CC(C)(C)O4)CC2)ccc1F [Example 38, 1-(4-Fluoro-3-methoxyphenyl)-4-(2,2,4,6,7-pentamethyl-2,3-dihydro-1-benzofuran-5-yl)piperazine] | 294% |
| COc1ccc(N2CCN(c3c(C)c(C)c4c(c3C)CC(C)(C)O4)CC2)cn1 [Example 40, 1-(6-Methoxypyridin-3-yl)-4-(2,2,4,6,7-pentamethyl-2,3-dihydro-1-benzofuran-5-yl)piperazine] | 341% |
| Cc1c(C)c(N2CCN(c3ccc(F)cc3)CC2)c(C)c2c1OC(C)(C)C2 [Example 41, 1-(4-Fluorophenyl)-4-(2,2,4,6,7-pentamethyl-2,3-dihydro-1-benzofuran-5-yl)piperazine] | > 500% |
| COc1ccc(N2CCCN(c3c(C)c(C)c4c(c3C)CC(C)(C)O4)CC2)cc1 [Example 45, 1-(4-Methoxyphenyl)-4-(2,2,4,6,7-pentamethyl-2,3-dihydro-1-benzofuran-5-yl)-1,4-diazepane] | 205% |
| CCOc1c(C)c(N2CCN(c3ccc(OC)cc3)CC2)c(C)c2c1OC(C)(C)C2 [Example 46, 1-(7-Ethoxy-2,2,4,6-tetramethyl-2,3-dihydro-1-benzofuran-5-yl)-4-(4-methoxyphenyl)piperazine] | 221% |
| COc1ccc(N2CCN(c3c(C)c4c(c(OC)c3C)OC(C)C4)CC2)cc1 (stereo not shown) [Example 48, 1-(4-Methoxyphenyl)-4-(7-methoxy-2,4,6-trimethyl-2,3-dihydro-1-benzofuran-5-yl)piperazine] | > 500% |
| COc1ccc(N2CCN(c3c(C)c4c(c(OC(C)C)c3C)OC(C)C4)CC2)cc1 (stereo not shown) [Example 55, 1-(4-Methoxyphenyl)-4-[2,4,6-trimethyl-7-(1-methylethoxy)-2,3-dihydro-1-benzofuran-5-yl]piperazine] | > 500% |
| CCOc1ccc(N2CCN(c3c(C)c4c(c(OC)c3C)OC(C)C4)CC2)cc1 (stereo not shown) [Example 56, 1-(4-Ethoxyphenyl)-4-(7-methoxy-2,4,6-trimethyl-2,3-dihydro-1-benzofuran-5-yl)piperazine] | > 500% |
| COc1ccc(N2CCN(c3c(C)c4c(c(OC)c3C)OC(C)C4)CC2)cc1F (stereo not shown) [Example 59, 1-(3-Fluoro-4-methoxyphenyl)-4-(7-methoxy-2,4,6-trimethyl-2,3-dihydro-1-benzofuran-5-yl)piperazine] | 478% |
| CCOc1ccc(N2CCN(c3c(C)c4c(c(OCC)c3C)OC(C)C4)CC2)cc1 (stereo not shown) [Example 61, 1-(4-Ethoxyphenyl)-4-(7-ethoxy-2,4,6-trimethyl-2,3-dihydro-1-benzofuran-5-yl)piperazine] | > 500% |
| COc1c(C)c(N2CCN(c3ccc(C)cc3)CC2)c(C)c2c1OC(C)(C)C2 [Example 62, 1-(7-Methoxy-2,2,4,6-tetramethyl-2,3-dihydro-1-benzofuran-5-yl)-4-(4-methylphenyl)piperazine] | > 500% |
| Cc1c(C)c(N2CCN(c3nc(-c4ccccc4)ns3)CC2)c(C)c2c1OC(C)(C)C2 [Example 87, 1-(2,2,4,6,7-Pentamethyl-2,3-dihydro-1-benzofuran-5-yl)-4-(3-phenyl-1,2,4-thiadiazol-5-yl)piperazine] | 256% |
| Cc1c(C)c(N2CCN(c3ccc(C#N)cc3)CC2)c(C)c2c1OC(C)(C)C2 [Example 90, 4-[4-(2,2,4,6,7-Pentamethyl-2,3-dihydro-1-benzofuran-5-yl)piperazin-1-yl]benzonitrile] | > 500% |
| Cc1c(C)c(N2CCN(c3ccc(S(C)(=O)=O)cc3)CC2)c(C)c2c1OC(C)(C)C2 [Example 92, 1-[4-(Methylsulfonyl)phenyl]-4-(2,2,4,6,7-pentamethyl-2,3-dihydro-1-benzofuran-5-yl)piperazine] | 457% |

same assay, conditions: compound 1 μM + rhIGF-1 100 ng/ml, 3 days culture; absorbance at 450 nm (class III beta-tubulin antibody); control rhIGF-1 only = 100%

| SMILES | Increase Ratio of the Absorbance (% control) |
| --- | --- |
| COc1ccc(N2CCN(c3c(C)c(C)c4c(c3C)CC(C)(CO)O4)CC2)cc1 (single isomer, unassigned; (+)) [Example 144, (+)-{5-[4-(4-methoxyphenyl)piperazin-1-yl]-2,4,6,7-tetramethyl-2,3-dihydro-1-benzofuran-2-yl}methanol] | >500 % control |
| COc1ccc(N2CCN(c3c(C)c(C)c4c(c3C)CC(C)(CO)O4)CC2)cc1 (single isomer, unassigned; (-)) [Example 143, (−)-{5-[4-(4-methoxyphenyl)piperazin-1-yl]-2,4,6,7-tetramethyl-2,3-dihydro-1-benzofuran-2-yl}methanol] | >500 % control |

— patent US8288390B2, “Benzofuran derivatives” (Takeda Pharmaceutical Company Limited, priority 2009, dated 2012)
